The results in this text go back to US20210070748A1, “INHIBITORS OF BRUTONS TYROSINE KINASE” (Pharmacyclics LLC, priority 2015, published 2021).

Like-named read-outs stand apart in the source and are kept apart here.

Format in all cases: biochemical
One assay addresses EGFR (Homo sapiens, UniProt P00533). Description: Inhibition of a panel of kinases, in vitro HotSpot kinase assay: EGFR. On the procedure: (§1) The degree of inhibition of a panel of kinases is determined using the in vitro HotSpot kinase assay (purified enzymes, ^33P-ATP, an appropriate substrate and 1 μM ATP).
The target in a further assay is T1, ITK (Homo sapiens, UniProt Q08881).
T1 sequence (Q08881 1-620): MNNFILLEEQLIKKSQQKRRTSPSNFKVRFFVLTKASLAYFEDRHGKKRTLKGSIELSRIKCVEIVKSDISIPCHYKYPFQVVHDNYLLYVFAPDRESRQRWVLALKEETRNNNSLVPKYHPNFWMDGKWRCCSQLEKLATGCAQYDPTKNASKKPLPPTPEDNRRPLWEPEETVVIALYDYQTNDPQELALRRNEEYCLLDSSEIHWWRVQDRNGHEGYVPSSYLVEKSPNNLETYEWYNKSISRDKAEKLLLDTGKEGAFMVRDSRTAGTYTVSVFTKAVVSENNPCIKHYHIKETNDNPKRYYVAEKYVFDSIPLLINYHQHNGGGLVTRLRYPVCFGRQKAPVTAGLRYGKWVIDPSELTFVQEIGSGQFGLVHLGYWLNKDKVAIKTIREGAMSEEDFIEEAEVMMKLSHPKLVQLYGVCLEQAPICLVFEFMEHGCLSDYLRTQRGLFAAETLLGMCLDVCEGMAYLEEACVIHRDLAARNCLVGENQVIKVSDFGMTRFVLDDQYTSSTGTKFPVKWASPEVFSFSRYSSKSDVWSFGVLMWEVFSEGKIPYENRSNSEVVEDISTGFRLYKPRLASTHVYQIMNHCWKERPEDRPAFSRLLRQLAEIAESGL
The experiment in a line: Inhibition of a panel of kinases, in vitro HotSpot kinase assay: ITK. On the procedure: as §1

The next assay has as its target LCK (Homo sapiens, UniProt P06239). The experiment in a line: Inhibition of a panel of kinases, in vitro HotSpot kinase assay: LCK. Conditions: read-out: IC50 LCK.
The target in the next assay is T2, JAK3 (Homo sapiens, UniProt P52333).
T2 sequence (P52333 1-1124): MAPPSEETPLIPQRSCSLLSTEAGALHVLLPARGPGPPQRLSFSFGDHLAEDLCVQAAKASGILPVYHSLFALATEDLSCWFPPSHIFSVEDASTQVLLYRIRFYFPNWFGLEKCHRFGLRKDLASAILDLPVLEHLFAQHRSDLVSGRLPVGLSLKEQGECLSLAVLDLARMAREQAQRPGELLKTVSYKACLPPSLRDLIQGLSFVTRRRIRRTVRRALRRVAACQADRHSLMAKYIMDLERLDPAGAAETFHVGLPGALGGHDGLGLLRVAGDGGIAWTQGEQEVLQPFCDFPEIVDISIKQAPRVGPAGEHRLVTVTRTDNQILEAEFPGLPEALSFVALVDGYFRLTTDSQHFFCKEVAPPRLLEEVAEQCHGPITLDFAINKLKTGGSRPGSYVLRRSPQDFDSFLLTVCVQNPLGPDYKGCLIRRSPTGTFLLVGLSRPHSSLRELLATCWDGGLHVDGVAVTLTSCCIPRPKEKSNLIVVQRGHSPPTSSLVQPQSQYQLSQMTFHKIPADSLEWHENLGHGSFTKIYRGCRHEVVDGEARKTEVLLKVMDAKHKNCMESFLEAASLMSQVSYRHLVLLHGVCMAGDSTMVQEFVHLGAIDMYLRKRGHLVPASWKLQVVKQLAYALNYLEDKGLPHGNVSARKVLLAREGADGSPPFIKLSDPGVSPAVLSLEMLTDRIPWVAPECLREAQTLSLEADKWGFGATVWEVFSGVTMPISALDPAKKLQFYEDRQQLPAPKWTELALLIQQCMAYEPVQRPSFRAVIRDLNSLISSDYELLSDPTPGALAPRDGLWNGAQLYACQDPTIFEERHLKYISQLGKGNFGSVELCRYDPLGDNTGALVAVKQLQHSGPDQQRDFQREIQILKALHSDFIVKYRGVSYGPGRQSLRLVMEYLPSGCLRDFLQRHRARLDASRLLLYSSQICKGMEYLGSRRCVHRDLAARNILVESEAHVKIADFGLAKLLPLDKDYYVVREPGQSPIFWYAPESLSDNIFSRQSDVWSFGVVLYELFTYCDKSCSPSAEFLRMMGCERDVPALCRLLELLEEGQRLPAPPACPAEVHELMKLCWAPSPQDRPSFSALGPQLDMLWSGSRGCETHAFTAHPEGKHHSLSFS
The experiment in a line: Inhibition of a panel of kinases, in vitro HotSpot kinase assay: JAK3. The note with it: read-out: IC50 JAK3.

Where [1] appears, read: D-compounds panel data, 1 μM ATP.

LCK, sequence (P06239 whole entry): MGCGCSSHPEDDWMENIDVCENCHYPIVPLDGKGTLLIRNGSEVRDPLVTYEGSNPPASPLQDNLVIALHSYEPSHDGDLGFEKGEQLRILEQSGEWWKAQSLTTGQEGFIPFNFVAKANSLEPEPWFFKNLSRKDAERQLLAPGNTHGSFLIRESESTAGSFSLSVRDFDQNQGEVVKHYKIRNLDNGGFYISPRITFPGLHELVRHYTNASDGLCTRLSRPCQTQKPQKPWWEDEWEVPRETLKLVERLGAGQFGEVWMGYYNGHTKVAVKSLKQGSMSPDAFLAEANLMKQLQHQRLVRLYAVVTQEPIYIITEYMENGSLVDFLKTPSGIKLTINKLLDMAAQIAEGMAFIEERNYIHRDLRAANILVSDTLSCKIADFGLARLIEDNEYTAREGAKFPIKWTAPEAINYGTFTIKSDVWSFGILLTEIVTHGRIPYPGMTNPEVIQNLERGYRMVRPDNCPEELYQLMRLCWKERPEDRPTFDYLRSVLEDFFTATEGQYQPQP
EGFR, sequence (P00533 25-1210): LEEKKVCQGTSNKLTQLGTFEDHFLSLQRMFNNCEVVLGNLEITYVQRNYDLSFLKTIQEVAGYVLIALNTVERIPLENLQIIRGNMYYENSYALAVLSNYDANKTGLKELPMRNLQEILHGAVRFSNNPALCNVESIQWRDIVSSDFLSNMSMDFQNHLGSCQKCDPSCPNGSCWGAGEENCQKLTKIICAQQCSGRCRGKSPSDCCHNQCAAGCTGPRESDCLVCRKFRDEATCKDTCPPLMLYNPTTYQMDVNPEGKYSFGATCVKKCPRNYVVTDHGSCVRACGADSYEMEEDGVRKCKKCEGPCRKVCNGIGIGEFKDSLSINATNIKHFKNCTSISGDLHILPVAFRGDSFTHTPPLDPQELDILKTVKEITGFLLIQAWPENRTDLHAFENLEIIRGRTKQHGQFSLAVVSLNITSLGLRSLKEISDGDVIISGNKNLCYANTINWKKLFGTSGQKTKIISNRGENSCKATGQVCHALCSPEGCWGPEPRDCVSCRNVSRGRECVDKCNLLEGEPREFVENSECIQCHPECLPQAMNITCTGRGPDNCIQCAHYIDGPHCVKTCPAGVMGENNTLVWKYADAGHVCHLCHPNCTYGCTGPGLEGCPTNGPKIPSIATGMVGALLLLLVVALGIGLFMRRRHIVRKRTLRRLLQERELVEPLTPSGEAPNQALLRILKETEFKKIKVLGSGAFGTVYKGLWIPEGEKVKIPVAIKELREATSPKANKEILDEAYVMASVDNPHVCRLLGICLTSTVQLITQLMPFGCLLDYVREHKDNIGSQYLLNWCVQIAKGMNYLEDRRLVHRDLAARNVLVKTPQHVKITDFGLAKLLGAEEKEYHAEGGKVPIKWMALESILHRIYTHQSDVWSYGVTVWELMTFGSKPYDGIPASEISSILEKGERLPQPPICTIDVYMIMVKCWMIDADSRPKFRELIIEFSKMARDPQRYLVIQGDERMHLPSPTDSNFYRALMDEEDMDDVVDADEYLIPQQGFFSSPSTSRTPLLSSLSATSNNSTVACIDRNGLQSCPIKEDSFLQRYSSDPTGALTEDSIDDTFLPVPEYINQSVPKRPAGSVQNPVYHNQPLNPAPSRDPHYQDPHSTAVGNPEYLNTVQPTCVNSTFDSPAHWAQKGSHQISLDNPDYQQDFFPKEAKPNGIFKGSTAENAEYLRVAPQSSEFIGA

On to `CN(C)C(=O)N1CC[C@@H]2[C@H]1CCCN2c1cnc(C(N)=O)c(Nc2cnn(C)c2)n1` (racemic) [Example D-50, (racemic)-cis-5-[1-(dimethylcarbamoyl)-octahydro-1H-pyrrolo[3,2-b]pyridin-4-yl]-3-[(1-methyl-1H-pyrazol-4-yl)amino]pyrazine-2-carboxamide], for which the half-inhibitory concentration (IC50) (usually the concentration that gives 50% inhibition) on EGFR (setting [1]) is > 10 µM; against ITK (setting [1]) it was 1 to 10 µM; on LCK (setting [1]) it was 1 to 10 µM; on JAK3 (setting [1]), 1 to 10 µM.
For `C[C@@H]1[C@H](NC(=O)c2ccc(C3CC3)cc2)CCCN1c1cnc(C(N)=O)c(Nc2ccc(OC(F)(F)F)cc2)n1` [Example D-42, 5-[(2R,3R)-3-(4-cyclopropylbenzamido)-2-methylpiperidin-1-yl]-3-{[4-(trifluoromethoxy)phenyl]amino}pyrazine-2-carboxamide], the half-maximal inhibitory concentration (IC50) on EGFR (setting [1]), at ITK (setting [1]), at LCK (setting [1]) and at JAK3 (setting [1]) was > 10 µM in each case.
With `C[C@@H]1[C@H](NC(=O)c2ccc(C3CC3)cc2)CCCN1c1cnc(C(N)=O)c(Nc2cnn(CC3CCC(F)(F)CC3)c2)n1` [Example D-321, 5-[(2R,3R)-3-(4-cyclopropylbenzamido)-2-methylpiperidin-1-yl]-3-({1-[(4,4-difluorocyclohexyl)methyl]-1H-pyrazol-4-yl}amino)pyrazine-2-carboxamide], the half-maximal inhibitory concentration (IC50) on EGFR (setting [1]) is > 10 µM; against ITK (setting [1]), 0.1 to 1 µM; at LCK (setting [1]), 1 to 10 µM; on JAK3 (setting [1]), > 10 µM.
Regarding `C[C@@H]1[C@H](NC(=O)C23CC(C2)C3)CCCN1c1cnc(C(N)=O)c(Nc2cnn(C)c2)n1` [Example D-90, 5-[(2R,3R)-3-{bicyclo[1.1.1]pentane-1-amido}-2-methylpiperidin-1-yl]-3-[(1-methyl-1H-pyrazol-4-yl)amino]pyrazine-2-carboxamide], the half-inhibitory concentration (IC50) fell in the range of 1 to 10 µM on EGFR (setting [1]), 0.1 to 1 µM against ITK (setting [1]), 0.1 to 1 µM on LCK (setting [1]) and 1 to 10 µM at JAK3 (setting [1]).
For `Cc1cc(Nc2nc(N3CCC[C@@H](NC(=O)c4ccc(C5CC5)cc4F)C3)cnc2C(N)=O)on1` [Example D-2, 5-[(3R)-3-(4-cyclopropyl-2-fluorobenzamido)piperidin-1-yl]-3-[(3-methyl-1,2-oxazol-5-yl)amino]pyrazine-2-carboxamide], the 50% inhibitory concentration (IC50) against EGFR (setting [1]) is > 10 µM; against ITK (setting [1]) it was > 10 µM; on LCK (setting [1]), > 10 µM; at JAK3 (setting [1]) it was 1 to 10 µM.
With `Cc1cc(Nc2nc(N3C[C@H](NC(=O)N(C)C)CC[C@@H]3C)cnc2C(N)=O)sn1` [Example D-74, 5-[(2S,5R)-5-[(dimethylcarbamoyl)amino]-2-methylpiperidin-1-yl]-3-[(3-methyl-1,2-thiazol-5-yl)amino]pyrazine-2-carboxamide], the IC50 at EGFR (setting [1]) was 0.1 to 1 µM; against ITK (setting [1]), > 10 µM; at LCK (setting [1]), 0.1 to 1 µM; at JAK3 (setting [1]) it was 0.1 to 1 µM.
`C[C@@H]1[C@H](NC(=O)c2ccc(C3CC3)cc2)CCCN1c1cnc(C(N)=O)c(Nc2ccc(N3CCN(C)CC3)c(C(F)(F)F)c2)n1` [Example D-92, 5-[(2R,3R)-3-(4-cyclopropylbenzamido)-2-methylpiperidin-1-yl]-3-{[4-(4-methylpiperazin-1-yl)-3-(trifluoromethyl)phenyl]amino}pyrazine-2-carboxamide]: the IC50 on EGFR (setting [1]) was 1 to 10 µM; on ITK (setting [1]), 1 to 10 µM; at LCK (setting [1]), 0.1 to 1 µM; on JAK3 (setting [1]) it was > 10 µM.
With `Cn1cc(Nc2nc(N3CCC[C@H]4[C@@H]3CCCN4C(=O)c3ccc(C4CC4)cc3)cnc2C(N)=O)cn1` [Example D-47, 5-[(4aS,8aS)-5-(4-cyclopropylbenzoyl)-decahydro-1,5-naphthyridin-1-yl]-3-[(1-methyl-1H-pyrazol-4-yl)amino]pyrazine-2-carboxamide], the IC50 on EGFR (setting [1]), against ITK (setting [1]), on LCK (setting [1]) and on JAK3 (setting [1]) was > 10 µM throughout.
As for `C[C@@H]1[C@H](NC(=O)N(C)C)CCCN1c1cnc(C(N)=O)c(Nc2ccc(OC3CCN(C)CC3)cc2)n1` [Example D-33, 5-[(2R,3R)-3-[(dimethylcarbamoyl)amino]-2-methylpiperidin-1-yl]-3-({4-[(1-methylpiperidin-4-yl)oxy]phenyl}amino)pyrazine-2-carboxamide], the half-maximal inhibitory concentration (IC50) against EGFR (setting [1]) lay in the range of 0.1 to 1 µM; at ITK (setting [1]) it was 0.01 to 0.1 µM; on LCK (setting [1]) it was 0.01 to 0.1 µM; at JAK3 (setting [1]), 1 to 10 µM.
On to `C[C@@H]1[C@H](N2Cc3cc(Br)ccc3C2=O)CCCN1c1cnc(C(N)=O)c(Nc2cnn(C)c2)n1` [Example D-27, 5-[(2R,3R)-3-(5-bromo-1-oxo-2,3-dihydro-1H-isoindol-2-yl)-2-methylpiperidin-1-yl]-3-[(1-methyl-1H-pyrazol-4-yl)amino]pyrazine-2-carboxamide], for which the IC50 against EGFR (setting [1]), at ITK (setting [1]), on LCK (setting [1]) and at JAK3 (setting [1]) was 0.1 to 1 µM throughout.
Consider `C=CC(=O)N1CC[C@@H](N(C)c2cnc(C(N)=O)c(Nc3ccc(C4(C)CCN(C5CC5)CC4)cc3)n2)C1` [Example E-104, (R)-5-((1-acryloylpyrrolidin-3-yl)(methyl)amino)-3-(4-(1-cyclopropyl-4-methylpiperidin-4-yl)phenylammo)pyrazine-2-carboxamide], for which the IC50 is ≤ 0.01 µM against EGFR (E compounds, Table 17); ≤ 0.01 µM against ITK (E compounds, Table 17); 0.01 to 0.1 µM at LCK (E compounds, Table 17); < 0.01 µM on JAK3 (E compounds, Table 17).
With `C[C@@H]1[C@H](N2CCN(C)C2=O)CCCN1c1cnc(C(N)=O)c(Nc2cnn(C)c2)n1` [Example D-93, 3-[(1-methyl-1H-pyrazol-4-yl)amino]-5-[(2R,3R)-2-methyl-3-(3-methyl-2-oxoimidazolidin-1-yl)piperidin-1-yl]pyrazine-2-carboxamide], the half-maximal inhibitory concentration (IC50) on EGFR (setting [1]) is 1 to 10 µM; on ITK (setting [1]) it was 0.1 to 1 µM; on LCK (setting [1]), 0.1 to 1 µM; at JAK3 (setting [1]), 0.1 to 1 µM.
In the case of `CN1CCN(C(=O)c2ccc(Nc3nc(N[C@H]4CC[C@H](NC(=O)c5ccc(C6CC6)cc5F)CC4)cnc3C(N)=O)cc2)CC1` [Example D-70, 3-{[4-(4-methylpiperazine-1-carbonyl)phenyl]amino}-5-{[(1 r,4r)-4-(4-cyclopropyl-2-fluorobenzamido)cyclohexyl]amino}pyrazine-2-carboxamide], the concentration for half-maximal inhibition (IC50) at EGFR (setting [1]), at ITK (setting [1]), on LCK (setting [1]) and on JAK3 (setting [1]) was 0.1 to 1 µM in each case.
As to `C[C@@H]1[C@H](NC(=O)c2ccc(N(C)C)cn2)CCCN1c1cnc(C(N)=O)c(Nc2cnn(C)c2)n1` [Example D-84, 5-[(2R,3R)-3-[5-(dimethylamino)pyridine-2-amido]-2-methylpiperidin-1-yl]-3-[(1-methyl-1H-pyrazol-4-yl)amino]pyrazine-2-carboxamide], the IC50 is 1 to 10 µM at EGFR (setting [1]), 0.1 to 1 µM at ITK (setting [1]), 0.1 to 1 µM on LCK (setting [1]) and > 10 µM at JAK3 (setting [1]).
